Assay results: ChEMBL document CHEMBL5715949, “Discovery of a selective irreversible BMX inhibitor for prostate cancer” (ACS Chem Biol, 2013)
Calls of active or inactive are those of the source. The calls are words filed in the database; no cut-off is given here.

Assays:
[1] = target: Receptor tyrosine-protein kinase erbB-4 (Homo sapiens) (UniProt Q15303); test: Inhibition of ERBB4 (unknown origin) assessed as remaining activity at 1 uM by Kinome scan method relative to control
[2] = target: Casein kinase II subunit alpha (Homo sapiens) (UniProt P68400); test: Inhibition of CSNK2A1 (unknown origin) assessed as remaining activity at 1 uM by Kinome scan method relative to control
[3] = target: Serine/threonine-protein kinase mTOR (Homo sapiens) (UniProt P42345); test: Inhibition of MTOR (unknown origin) assessed as remaining activity at 1 uM by Kinome scan method relative to control
[4] = target: Protein kinase C delta type (Homo sapiens) (UniProt Q05655); test: Inhibition of PRKCD (unknown origin) assessed as remaining activity at 1 uM by Kinome scan method relative to control
[5] = target: Serine/threonine-protein kinase MARK2 (Homo sapiens) (UniProt Q7KZI7); test: Inhibition of MARK2 (unknown origin) assessed as remaining activity at 1 uM by Kinome scan method relative to control
[6] = target: Fibroblast growth factor receptor 1 (Homo sapiens) (UniProt P11362); test: Inhibition of FGFR1 (unknown origin) assessed as remaining activity at 1 uM by Kinome scan method relative to control
[7] = target: Death-associated protein kinase 1 (Homo sapiens) (UniProt P53355); test: Inhibition of DAPK1 (unknown origin) assessed as remaining activity at 1 uM by Kinome scan method relative to control
[8] = target: cAMP-dependent protein kinase catalytic subunit alpha (Homo sapiens) (UniProt P17612); test: Inhibition of PKAC-alpha (unknown origin) assessed as remaining activity at 1 uM by Kinome scan method relative to control
[9] = target: cAMP-dependent protein kinase catalytic subunit PRKX (Homo sapiens) (UniProt P51817); test: Inhibition of PRKX (unknown origin) assessed as remaining activity at 1 uM by Kinome scan method relative to control
[10] = target: Macrophage colony-stimulating factor 1 receptor (Homo sapiens) (UniProt P07333); test: Inhibition of CSF1R (unknown origin) assessed as remaining activity at 1 uM by Kinome scan method relative to control
[11] = target: Serine/threonine-protein kinase SBK1 (Homo sapiens) (UniProt Q52WX2); test: Inhibition of SBK1 (unknown origin) assessed as remaining activity at 1 uM by Kinome scan method relative to control
[12] = tested on: Receptor-type tyrosine-protein kinase FLT3 (Homo sapiens), P36888 [UNDEFINED MUTATION]; test: Inhibition of FLT3 ITD mutant (unknown origin) assessed as remaining activity at 1 uM by Kinome scan method relative to control
[13] = target: Phosphatidylinositol 4,5-bisphosphate 3-kinase catalytic subunit gamma isoform (Homo sapiens) (UniProt P48736); test: Inhibition of PIK3CG (unknown origin) assessed as remaining activity at 1 uM by Kinome scan method relative to control
[14] = target: Tyrosine-protein kinase Yes (Homo sapiens) (UniProt P07947); test: Inhibition of YES (unknown origin) assessed as remaining activity at 1 uM by Kinome scan method relative to control
[15] = target: Serine/threonine-protein kinase PknB (Mycobacterium tuberculosis) (UniProt P9WI81); test: Inhibition of Mycobacterium tuberculosis PknB assessed as remaining activity at 1 uM by Kinome scan method relative to control
[16] = Inhibition of PI3K/AKT/mTOR signalling pathway in human RV-1 cells assessed as decrease in 4EBP phosphorylation at T37/46 residue at 2.5 uM incubated for 4 hrs by immunoblot analysis; assay type: cell-based
[17] = target: Peripheral plasma membrane protein CASK (Homo sapiens) (UniProt O14936); test: Inhibition of CASK (unknown origin) assessed as remaining activity at 1 uM by Kinome scan method relative to control
[18] = Inhibition of PI3K/AKT/mTOR signalling pathway in human RV-1 cells assessed as decrease in S6K phosphorylation at T389 residue at 2.5 uM incubated for 4 hrs by immunoblot analysis; assay type: cell-based
[19] = target: Ribosomal protein S6 kinase alpha-1 (Homo sapiens) (UniProt Q15418); test: Inhibition of N-terminal kinase domain RSK1 (unknown origin) assessed as remaining activity at 1 uM by Kinome scan method relative to control
[20] = target: Tyrosine-protein kinase Fes/Fps (Homo sapiens) (UniProt P07332); test: Inhibition of FES (unknown origin) assessed as remaining activity at 1 uM by Kinome scan method relative to control
BaF3 = test: Antiproliferative activity against mouse BaF3 cells expressing TEL-fused BLK assessed growth inhibition incubated for 2 to 5 days by CellTiter-Glo assay; assay type: functional; conditions: time 2-5 day
[21] = tested on: Hepatocyte growth factor receptor (Homo sapiens), P08581 [M1250T]; test: Inhibition of MET M1250T mutant (unknown origin) assessed as remaining activity at 1 uM by Kinome scan method relative to control
[22] = target: TRAF2 and NCK-interacting protein kinase (Homo sapiens) (UniProt Q9UKE5); test: Inhibition of TNIK (unknown origin) assessed as remaining activity at 1 uM by Kinome scan method relative to control
[23] = target: Serine/threonine-protein kinase Nek4 (Homo sapiens) (UniProt P51957); test: Inhibition of NEK4 (unknown origin) assessed as remaining activity at 1 uM by Kinome scan method relative to control
[24] = target: Mitogen-activated protein kinase 12 (Homo sapiens) (UniProt P53778); test: Inhibition of P38gamma (unknown origin) assessed as remaining activity at 1 uM by Kinome scan method relative to control
[25] = target: Insulin receptor-related protein (Homo sapiens) (UniProt P14616); test: Inhibition of INSRR (unknown origin) assessed as remaining activity at 1 uM by Kinome scan method relative to control
[26] = target: Phosphatidylinositol 5-phosphate 4-kinase type-2 beta (Homo sapiens) (UniProt P78356); test: Inhibition of PIP5K2B (unknown origin) assessed as remaining activity at 1 uM by Kinome scan method relative to control
[27] = target: Mitogen-activated protein kinase 1 (Homo sapiens) (UniProt P28482); test: Inhibition of ERK2 (unknown origin) assessed as remaining activity at 1 uM by Kinome scan method relative to control
[28] = target: Phosphatidylinositol 4-kinase beta (Homo sapiens) (UniProt Q9UBF8); test: Inhibition of PIK4CB (unknown origin) assessed as remaining activity at 1 uM by Kinome scan method relative to control
[29] = target: Protein kinase C eta type (Homo sapiens) (UniProt P24723); test: Inhibition of PRKCH (unknown origin) assessed as remaining activity at 1 uM by Kinome scan method relative to control
[30] = target: cGMP-dependent protein kinase 1 (Homo sapiens) (UniProt Q13976); test: Inhibition of PRKG1 (unknown origin) assessed as remaining activity at 1 uM by Kinome scan method relative to control
[31] = tested on: Mast/stem cell growth factor receptor Kit (Homo sapiens), P10721 [V559D]; test: Inhibition of KIT V559D mutant (unknown origin) assessed as remaining activity at 1 uM by Kinome scan method relative to control

Serine/threonine-protein kinase MARK2 (Homo sapiens), sequence (Q7KZI7 whole entry): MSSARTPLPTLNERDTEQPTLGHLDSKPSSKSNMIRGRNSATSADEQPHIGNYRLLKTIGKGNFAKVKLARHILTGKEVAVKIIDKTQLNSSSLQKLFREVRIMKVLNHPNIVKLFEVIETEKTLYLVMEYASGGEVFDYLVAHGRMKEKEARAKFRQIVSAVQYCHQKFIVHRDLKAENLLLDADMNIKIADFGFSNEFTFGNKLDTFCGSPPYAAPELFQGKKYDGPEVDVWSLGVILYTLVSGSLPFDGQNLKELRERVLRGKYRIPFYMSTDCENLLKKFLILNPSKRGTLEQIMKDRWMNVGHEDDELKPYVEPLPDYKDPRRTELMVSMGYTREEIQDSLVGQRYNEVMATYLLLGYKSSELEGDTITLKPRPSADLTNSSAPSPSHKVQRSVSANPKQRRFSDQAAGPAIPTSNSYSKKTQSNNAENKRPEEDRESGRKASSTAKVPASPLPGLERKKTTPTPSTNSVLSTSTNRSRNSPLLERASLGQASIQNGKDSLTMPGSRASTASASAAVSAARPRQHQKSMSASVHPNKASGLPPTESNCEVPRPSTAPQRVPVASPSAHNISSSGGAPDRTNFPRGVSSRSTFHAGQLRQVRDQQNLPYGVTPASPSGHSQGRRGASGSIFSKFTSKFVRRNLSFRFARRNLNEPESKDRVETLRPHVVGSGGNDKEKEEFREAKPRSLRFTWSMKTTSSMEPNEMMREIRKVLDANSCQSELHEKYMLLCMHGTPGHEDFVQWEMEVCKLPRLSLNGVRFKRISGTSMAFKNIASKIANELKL
cAMP-dependent protein kinase catalytic subunit PRKX (Homo sapiens), sequence (P51817 whole entry): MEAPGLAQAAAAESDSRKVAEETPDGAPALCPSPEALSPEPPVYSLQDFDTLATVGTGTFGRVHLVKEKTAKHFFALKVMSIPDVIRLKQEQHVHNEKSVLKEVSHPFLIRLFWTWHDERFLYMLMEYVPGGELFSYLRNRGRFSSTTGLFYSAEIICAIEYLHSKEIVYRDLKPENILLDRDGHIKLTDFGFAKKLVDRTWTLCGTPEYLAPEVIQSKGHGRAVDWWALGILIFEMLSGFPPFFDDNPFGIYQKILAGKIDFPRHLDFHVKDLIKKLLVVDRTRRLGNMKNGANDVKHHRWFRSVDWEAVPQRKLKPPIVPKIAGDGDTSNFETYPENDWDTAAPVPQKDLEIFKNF
Tyrosine-protein kinase Fes/Fps (Homo sapiens), sequence (P07332 whole entry, the tested form may be a part): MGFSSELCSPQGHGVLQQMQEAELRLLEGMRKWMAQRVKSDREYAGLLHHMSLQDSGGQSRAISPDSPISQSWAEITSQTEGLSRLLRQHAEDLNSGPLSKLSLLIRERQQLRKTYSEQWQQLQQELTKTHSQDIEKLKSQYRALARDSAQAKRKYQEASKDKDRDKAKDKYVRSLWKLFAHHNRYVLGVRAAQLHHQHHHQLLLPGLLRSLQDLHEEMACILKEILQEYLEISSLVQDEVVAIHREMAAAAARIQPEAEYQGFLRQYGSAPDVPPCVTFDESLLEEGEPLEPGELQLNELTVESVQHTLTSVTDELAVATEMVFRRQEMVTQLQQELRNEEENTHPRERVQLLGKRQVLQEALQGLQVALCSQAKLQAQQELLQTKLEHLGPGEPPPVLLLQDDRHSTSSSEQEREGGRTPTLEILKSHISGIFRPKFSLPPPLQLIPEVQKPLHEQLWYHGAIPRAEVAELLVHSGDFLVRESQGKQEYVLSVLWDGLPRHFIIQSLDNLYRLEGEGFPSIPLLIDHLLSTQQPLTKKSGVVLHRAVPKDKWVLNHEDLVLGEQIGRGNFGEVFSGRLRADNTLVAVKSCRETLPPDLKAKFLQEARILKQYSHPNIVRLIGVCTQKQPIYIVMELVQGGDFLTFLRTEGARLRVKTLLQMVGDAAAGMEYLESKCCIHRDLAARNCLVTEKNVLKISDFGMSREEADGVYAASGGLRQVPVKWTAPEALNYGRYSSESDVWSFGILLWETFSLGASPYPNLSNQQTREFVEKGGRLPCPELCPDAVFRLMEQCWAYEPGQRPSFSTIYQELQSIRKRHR
Mitogen-activated protein kinase 12 (Homo sapiens), sequence (P53778 whole entry): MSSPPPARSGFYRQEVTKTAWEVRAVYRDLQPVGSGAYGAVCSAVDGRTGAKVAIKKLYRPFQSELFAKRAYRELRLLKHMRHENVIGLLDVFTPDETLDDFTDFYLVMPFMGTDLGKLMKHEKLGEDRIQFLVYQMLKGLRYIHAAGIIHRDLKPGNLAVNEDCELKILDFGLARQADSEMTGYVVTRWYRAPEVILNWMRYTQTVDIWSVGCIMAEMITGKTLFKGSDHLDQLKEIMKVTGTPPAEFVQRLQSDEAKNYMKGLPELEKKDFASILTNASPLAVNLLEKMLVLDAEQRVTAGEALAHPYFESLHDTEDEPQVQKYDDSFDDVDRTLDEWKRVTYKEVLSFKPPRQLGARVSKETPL
Serine/threonine-protein kinase PknB (Mycobacterium tuberculosis), sequence (P9WI81 whole entry): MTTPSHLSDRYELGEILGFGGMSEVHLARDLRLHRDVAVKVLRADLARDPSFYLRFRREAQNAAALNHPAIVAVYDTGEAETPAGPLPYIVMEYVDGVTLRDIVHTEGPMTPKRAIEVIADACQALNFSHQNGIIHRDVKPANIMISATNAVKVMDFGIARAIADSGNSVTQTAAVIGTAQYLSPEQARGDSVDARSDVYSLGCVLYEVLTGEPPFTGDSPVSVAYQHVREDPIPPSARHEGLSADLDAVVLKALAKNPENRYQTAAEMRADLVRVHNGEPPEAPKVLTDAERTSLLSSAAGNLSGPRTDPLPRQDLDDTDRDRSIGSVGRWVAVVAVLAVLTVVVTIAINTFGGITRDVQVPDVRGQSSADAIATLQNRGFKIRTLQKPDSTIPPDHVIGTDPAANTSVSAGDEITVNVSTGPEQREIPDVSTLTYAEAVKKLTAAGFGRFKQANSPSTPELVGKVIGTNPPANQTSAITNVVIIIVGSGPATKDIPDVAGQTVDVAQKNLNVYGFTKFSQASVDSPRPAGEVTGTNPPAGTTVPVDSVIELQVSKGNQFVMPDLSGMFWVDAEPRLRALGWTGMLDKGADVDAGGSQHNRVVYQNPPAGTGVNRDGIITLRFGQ
Phosphatidylinositol 4-kinase beta (Homo sapiens), sequence (Q9UBF8 2-816 limits assumed): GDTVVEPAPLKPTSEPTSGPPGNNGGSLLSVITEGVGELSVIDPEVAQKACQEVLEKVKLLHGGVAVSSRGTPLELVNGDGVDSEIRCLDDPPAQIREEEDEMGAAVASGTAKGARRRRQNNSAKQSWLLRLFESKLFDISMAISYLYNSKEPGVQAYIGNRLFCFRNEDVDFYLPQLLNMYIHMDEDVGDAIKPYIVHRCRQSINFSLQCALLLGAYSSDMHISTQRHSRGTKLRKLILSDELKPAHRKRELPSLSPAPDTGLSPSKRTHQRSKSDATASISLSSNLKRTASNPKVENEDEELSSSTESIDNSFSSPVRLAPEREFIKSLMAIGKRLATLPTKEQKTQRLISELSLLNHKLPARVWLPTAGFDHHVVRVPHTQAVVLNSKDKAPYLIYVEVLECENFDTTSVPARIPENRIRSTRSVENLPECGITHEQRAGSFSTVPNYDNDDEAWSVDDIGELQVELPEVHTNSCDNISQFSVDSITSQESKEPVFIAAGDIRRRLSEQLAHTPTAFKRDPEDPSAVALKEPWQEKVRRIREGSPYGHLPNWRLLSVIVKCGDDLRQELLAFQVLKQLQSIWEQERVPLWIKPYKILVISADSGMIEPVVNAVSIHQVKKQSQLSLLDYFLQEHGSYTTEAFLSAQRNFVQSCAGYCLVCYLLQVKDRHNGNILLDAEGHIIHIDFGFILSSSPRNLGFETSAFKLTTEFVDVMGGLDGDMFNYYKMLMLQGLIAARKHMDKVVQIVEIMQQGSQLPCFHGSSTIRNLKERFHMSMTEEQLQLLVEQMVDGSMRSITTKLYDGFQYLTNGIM
Fibroblast growth factor receptor 1 (Homo sapiens), sequence (P11362 22-822 limits assumed): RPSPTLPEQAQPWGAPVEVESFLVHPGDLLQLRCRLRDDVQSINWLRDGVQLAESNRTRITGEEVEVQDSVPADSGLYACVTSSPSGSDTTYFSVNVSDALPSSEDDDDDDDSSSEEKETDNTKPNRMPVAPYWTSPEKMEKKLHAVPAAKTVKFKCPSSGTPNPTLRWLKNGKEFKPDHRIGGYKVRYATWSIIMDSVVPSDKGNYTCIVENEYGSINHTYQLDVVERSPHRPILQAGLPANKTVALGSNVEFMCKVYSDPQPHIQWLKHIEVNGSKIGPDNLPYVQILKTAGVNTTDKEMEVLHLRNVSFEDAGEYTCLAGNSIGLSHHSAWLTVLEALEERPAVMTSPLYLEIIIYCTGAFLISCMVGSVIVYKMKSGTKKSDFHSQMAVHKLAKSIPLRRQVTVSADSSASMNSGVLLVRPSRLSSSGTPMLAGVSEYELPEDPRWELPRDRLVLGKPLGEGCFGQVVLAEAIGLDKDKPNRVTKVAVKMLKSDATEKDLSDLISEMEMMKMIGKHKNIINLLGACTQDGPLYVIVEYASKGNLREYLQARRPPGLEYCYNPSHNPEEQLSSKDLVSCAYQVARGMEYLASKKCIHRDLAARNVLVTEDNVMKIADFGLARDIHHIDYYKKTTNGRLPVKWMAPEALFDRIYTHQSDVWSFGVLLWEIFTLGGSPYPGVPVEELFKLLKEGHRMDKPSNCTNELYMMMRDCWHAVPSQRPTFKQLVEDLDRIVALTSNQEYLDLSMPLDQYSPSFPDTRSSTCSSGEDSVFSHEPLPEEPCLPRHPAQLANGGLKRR
Phosphatidylinositol 5-phosphate 4-kinase type-2 beta (Homo sapiens), sequence (P78356 whole entry): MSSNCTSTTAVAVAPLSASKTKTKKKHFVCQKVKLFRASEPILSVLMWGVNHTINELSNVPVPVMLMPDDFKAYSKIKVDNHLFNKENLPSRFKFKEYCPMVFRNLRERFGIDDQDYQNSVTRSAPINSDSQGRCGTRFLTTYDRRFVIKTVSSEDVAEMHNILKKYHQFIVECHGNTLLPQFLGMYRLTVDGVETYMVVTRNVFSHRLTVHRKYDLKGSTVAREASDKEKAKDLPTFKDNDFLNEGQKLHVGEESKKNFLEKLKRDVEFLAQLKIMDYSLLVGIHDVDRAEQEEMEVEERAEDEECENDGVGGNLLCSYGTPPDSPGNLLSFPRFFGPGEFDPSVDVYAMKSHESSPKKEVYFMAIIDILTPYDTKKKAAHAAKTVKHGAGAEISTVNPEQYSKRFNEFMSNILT

For `C=CC(=O)Nc1cc(-n2c(=O)ccc3cnc4ccc(-c5ccc(NS(C)(=O)=O)cc5)cc4c32)ccc1C`, which Activity [1] is on record?
The Activity was 78%.

And the Activity [2]?
Its Activity is 84%.

And the Activity [3]?
Its Activity is 45%.

And the Activity [4]?
The Activity was 41%.

What about the Activity [5] of the same molecule?
The Activity was 94%.

And the Activity [6]?
The Activity was 92%.

And the Activity [7]?
Its Activity is 96%.

And the Activity [8]?
The Activity was 83%.

And the Activity [9]?
Its Activity is 77%.

What about the Activity [10] of the same molecule?
Its Activity is 94%.

What about the Activity [11] of the same molecule?
Its Activity is 4.6%.

And the Activity [12]?
Its Activity is 99%.

And the Activity [13]?
The Activity was 2.8%.

What about the Activity [14] of the same molecule?
Its Activity is 74%.

What about the Activity [15] of the same molecule?
The Activity was 41%.

What about the inhibition [16] of the same molecule?
Its inhibition is “inactive”.

And the Activity [17]?
The Activity was 61%.

And the inhibition [18]?
Its inhibition is “inactive”.

And the Activity [19]?
The Activity was 76%.

And the Activity [20]?
Its Activity is 92%.

What about the GI50 (BaF3) of the same molecule?
Its GI50 is 3.64 µM.

What about the Activity [21] of the same molecule?
Its Activity is 80%.

What about the Activity [22] of the same molecule?
The Activity was 96%.

What about the Activity [23] of the same molecule?
The Activity was 81%.

And the Activity [24]?
Its Activity is 72%.

What about the Activity [25] of the same molecule?
The Activity was 98%.

What about the Activity [26] of the same molecule?
The Activity was 93%.

And the Activity [27]?
The Activity was 94%.

What about the Activity [28] of the same molecule?
The Activity was 79%.

What about the Activity [29] of the same molecule?
The Activity was 98%.

And the Activity [30]?
The Activity was 87%.

And the Activity [31]?
The Activity was 87%.
